Source: paper PMC12647218 (Scientific Reports, 2025)

Columns and labels:
[1] = target: Acetylcholinesterase from Electrophorus electricus (electric eel) (Electrophorus electricus, UniProt O42275); test: biochemical
[2] = target: Butyrylcholinesterase from equine serum (Equus caballus, UniProt P81908); test: BChE inhibition, modified colorimetric Ellman method; type: biochemical
[3] = target: T1, hMAO-A (Homo sapiens, UniProt P21397); test: hMAO-A inhibition, in vitro fluorometric technique; type: biochemical
T1 sequence (P21397 1-527): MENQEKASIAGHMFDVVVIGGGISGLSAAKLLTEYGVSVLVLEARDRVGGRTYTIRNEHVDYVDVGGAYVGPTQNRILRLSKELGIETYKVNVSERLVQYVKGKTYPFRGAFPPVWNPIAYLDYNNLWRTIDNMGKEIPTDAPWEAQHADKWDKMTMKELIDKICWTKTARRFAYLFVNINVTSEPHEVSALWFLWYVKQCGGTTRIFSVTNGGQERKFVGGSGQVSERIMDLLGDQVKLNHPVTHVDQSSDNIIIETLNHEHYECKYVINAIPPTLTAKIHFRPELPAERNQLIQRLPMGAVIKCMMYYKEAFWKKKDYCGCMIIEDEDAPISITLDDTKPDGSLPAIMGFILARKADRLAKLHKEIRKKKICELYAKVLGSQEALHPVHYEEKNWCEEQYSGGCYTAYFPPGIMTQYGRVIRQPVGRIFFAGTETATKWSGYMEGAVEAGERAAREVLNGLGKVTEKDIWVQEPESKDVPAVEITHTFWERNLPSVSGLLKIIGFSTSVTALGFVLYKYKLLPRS

Butyrylcholinesterase from equine serum, sequence (P81908 whole entry): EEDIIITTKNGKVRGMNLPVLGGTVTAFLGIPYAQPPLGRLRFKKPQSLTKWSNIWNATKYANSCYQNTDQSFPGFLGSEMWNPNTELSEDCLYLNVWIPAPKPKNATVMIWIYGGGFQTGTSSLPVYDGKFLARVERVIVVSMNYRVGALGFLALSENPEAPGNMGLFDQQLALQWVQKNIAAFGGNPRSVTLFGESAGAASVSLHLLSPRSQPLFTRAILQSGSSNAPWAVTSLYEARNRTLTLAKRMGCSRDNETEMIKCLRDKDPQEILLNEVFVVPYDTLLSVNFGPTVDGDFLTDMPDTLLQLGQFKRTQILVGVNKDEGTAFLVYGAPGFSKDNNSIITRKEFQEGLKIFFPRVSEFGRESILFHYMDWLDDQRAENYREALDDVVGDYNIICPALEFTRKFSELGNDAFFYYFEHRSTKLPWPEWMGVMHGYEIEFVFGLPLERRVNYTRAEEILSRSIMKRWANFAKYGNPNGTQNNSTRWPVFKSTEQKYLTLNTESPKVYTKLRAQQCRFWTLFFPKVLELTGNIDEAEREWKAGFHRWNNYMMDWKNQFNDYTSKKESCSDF
Acetylcholinesterase from Electrophorus electricus (electric eel), sequence (O42275 24-633): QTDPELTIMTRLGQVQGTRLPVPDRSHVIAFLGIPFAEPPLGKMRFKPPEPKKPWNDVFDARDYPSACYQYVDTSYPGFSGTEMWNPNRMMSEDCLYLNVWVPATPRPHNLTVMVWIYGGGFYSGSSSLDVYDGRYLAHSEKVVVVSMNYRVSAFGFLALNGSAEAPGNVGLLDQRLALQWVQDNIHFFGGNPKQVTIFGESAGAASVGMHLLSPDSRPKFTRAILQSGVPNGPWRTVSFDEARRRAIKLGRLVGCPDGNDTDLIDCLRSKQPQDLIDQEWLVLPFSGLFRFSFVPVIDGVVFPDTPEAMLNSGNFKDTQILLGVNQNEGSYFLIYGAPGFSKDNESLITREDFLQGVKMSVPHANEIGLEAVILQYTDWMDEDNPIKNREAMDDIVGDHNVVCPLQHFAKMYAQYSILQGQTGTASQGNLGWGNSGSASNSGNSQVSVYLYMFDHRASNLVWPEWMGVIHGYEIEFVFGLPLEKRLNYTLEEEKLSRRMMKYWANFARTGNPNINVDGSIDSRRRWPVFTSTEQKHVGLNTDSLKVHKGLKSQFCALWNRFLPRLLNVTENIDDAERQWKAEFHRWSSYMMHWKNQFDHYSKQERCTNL

## COc1cccc2cc(/C(C)=N/NC(=O)c3ccco3)c(=O)oc12 [Compound 3f, (E)-N’-(1-(8-methoxy-2-oxo-2 H-chromen-3-yl)ethylidene)furan-2-carbohydrazide]
[1]
  IC50: 23.8 ± 2.44 µM
  Ki: 19.6 ± 2.44 µM
[2]
  IC50: 78.2 ± 5.8 µM
  Ki: 68.5 ± 5.07 µM
[3]
  IC50: 3.94 ± 0.43 µM

## COc1cccc2cc(/C(C)=N/NC(=O)Cn3ccc4cccnc43)c(=O)oc12 [Compound 3b, (E)-N’-(1-(8-methoxy-2-oxo-2 H-chromen-3-yl)ethylidene)-2-(1 H-pyrrolo[2,3-b]pyridin-1-yl)acetohydrazide]
[1]
  IC50: 26.5 ± 3.42 µM
  Ki: 15.7 ± 1.37 µM
[2]
  IC50: > 100 µM
  Ki: > 100 µM
[3]
  IC50: 1.97 ± 0.1 µM

## COc1cccc2cc(/C(C)=N/NC(=O)c3ccccn3)c(=O)oc12 [Compound 3l, (E)-N’-(1-(8-methoxy-2-oxo-2 H-chromen-3-yl)ethylidene)picolinohydrazide]
[1]
  IC50: 8.54 ± 1.01 µM
  Ki: 7.08 ± 0.64 µM
[2]
  IC50: 75 ± 5.3 µM
  Ki: 69 ± 5.3 µM
[3]
  IC50: 1.65 ± 0.34 µM

## COc1cccc2cc(/C(C)=N/NC(=O)c3ccccc3C)c(=O)oc12 [Compound 3d, (E)-N’-(1-(8-methoxy-2-oxo-2 H-chromen-3-yl)ethylidene)-2-methylbenzohydrazide]
[1]
  IC50: 20.2 ± 2.67 µM
  Ki: 13.5 ± 1.24 µM
[2]
  IC50: 90.1 ± 3.78 µM
  Ki: 69.9 ± 5.75 µM
[3]
  IC50: 1.73 ± 0.05 µM

## COc1cccc2cc(/C(C)=N/NC(=O)c3ccccc3Br)c(=O)oc12 [Compound 3c, (E)-2-bromo-N’-(1-(8-methoxy-2-oxo-2 H-chromen-3-yl)ethylidene)benzohydrazide]
[1]
  IC50: 17 ± 1.9 µM
  Ki: 11.3 ± 0.93 µM
[2]
  IC50: > 100 µM
  Ki: > 100 µM
[3]
  IC50: 2.03 ± 0.08 µM

## COc1cccc2cc(/C(C)=N/NC(=O)c3ccccc3Cl)c(=O)oc12 [Compound 3m, (E)-2-chloro-N’-(1-(8-methoxy-2-oxo-2 H-chromen-3-yl)ethylidene)benzohydrazide]
[1]
  IC50: 14.8 ± 1.4 µM
  Ki: 10.4 ± 0.59 µM
[2]
  IC50: 82.3 ± 6.9 µM
  Ki: 71.4 ± 7.01 µM
[3]
  IC50: 1.9 ± 0.3 µM

## COc1cccc2cc(/C(C)=N/NC(=O)c3ccc(C(F)(F)F)cc3)c(=O)oc12 [Compound 3e, (E)-N’-(1-(8-methoxy-2-oxo-2 H-chromen-3-yl)ethylidene)-4-(trifluoromethyl) benzohydrazide]
[1]
  IC50: 8.01 ± 0.7 µM
  Ki: 7.38 ± 1.01 µM
[2]
  IC50: 65.4 ± 4.55 µM
  Ki: 57 ± 3.95 µM
[3]
  IC50: 1.51 ± 0.13 µM

## COc1cccc2cc(/C(C)=N/NC(=O)Cc3ccccc3)c(=O)oc12 [Compound 3i, (E)-N’-(1-(8-methoxy-2-oxo-2 H-chromen-3-yl)ethylidene)-2-phenylacetohydrazide]
[1]
  IC50: 18.4 ± 1.98 µM
  Ki: 15.4 ± 2.01 µM
[2]
  IC50: 79.3 ± 5.03 µM
  Ki: 70.3 ± 3.57 µM
[3]
  IC50: 1.87 ± 0.07 µM

## COc1cccc2cc(/C(C)=N/NC(=O)c3cccc4[nH]ccc34)c(=O)oc12 [Compound 3g, (E)-N’-(1-(8-methoxy-2-oxo-2 H-chromen-3-yl)ethylidene)-1 H-indole-4-carbohydrazide]
[1]
  IC50: 29 ± 4.3 µM
  Ki: 21 ± 3.48 µM
[2]
  IC50: 81.5 ± 6.02 µM
  Ki: 73.6 ± 4.66 µM
[3]
  IC50: 2.08 ± 0.15 µM

## COc1cccc2cc(/C(C)=N/NC(=O)c3cc4ccccc4cc3O)c(=O)oc12 [Compound 3a, (E)-3-Hydroxy-N’-(1-(8-methoxy-2-oxo-2 H-chromen-3-yl)ethylidene)-2-naphthohydrazide]
[1]
  IC50: 7.4 ± 0.14 µM
  Ki: 6.03 ± 0.4 µM
[2]
  IC50: 74.4 ± 4.98 µM
  Ki: 63.3 ± 5.38 µM
[3]
  IC50: 1.44 ± 0.03 µM

## COc1cccc2cc(/C(C)=N/NC(=O)c3ccc(F)cc3)c(=O)oc12 [Compound 3k, (E)-4-fluoro-N’-(1-(8-methoxy-2-oxo-2 H-chromen-3-yl)ethylidene)benzohydrazide]
[1]
  IC50: 12.4 ± 0.98 µM
  Ki: 7.95 ± 0.57 µM
[2]
  IC50: 71.5 ± 3.68 µM
  Ki: 66.1 ± 4.62 µM
[3]
  IC50: 1.83 ± 0.17 µM

## COc1cccc2cc(/C(C)=N/NC(=O)c3cccs3)c(=O)oc12 [Compound 3j, (E)-N’-(1-(8-methoxy-2-oxo-2 H-chromen-3-yl)ethylidene)thiophene-2-carbohydrazide]
[1]
  IC50: 21.9 ± 3.24 µM
  Ki: 14.6 ± 1.05 µM
[2]
  IC50: > 100 µM
  Ki: > 100 µM
[3]
  IC50: 2.5 ± 0.31 µM

## COc1cccc2cc(/C(C)=N/NC(=O)c3cccc(Cl)c3)c(=O)oc12 [Compound 3h, (E)-3-chloro-N’-(1-(8-methoxy-2-oxo-2 H-chromen-3-yl)ethylidene)benzohydrazide]
[1]
  IC50: 41.1 ± 3.28 µM
  Ki: 25.8 ± 1.97 µM
[2]
  IC50: 85 ± 3.48 µM
  Ki: 77 ± 6.92 µM
[3]
  IC50: 1.8 ± 0.26 µM
